Laboratory results as given in patent US10568899B2, “Combinations of a mithramycin analogue and another chemotherapeutic agent for the treatment of triple negative breast cancer” (ENTRECHEM, S.L., priority 2015, dated 2020).
pIC50: −log10 of the molar value.

Experiments:
HBL-100 cells = test: MTT-based cell proliferation assay, single drugs and combinations (CI by CalcuSyn)
Experimental: (§1) All cell lines were cultured at 37° C. in a humidified atmosphere in the presence of a mixture of 5% CO2 and 95% air. Cells were grown in DMEM or in RPMI medium containing high glucose concentration (4,500 mg/liter) and antibiotics (penicillin at 100 mU/ml, streptomycin at 100 μg/ml) and supplemented with 10% FBS. Cell lines were provided by Drs. J. Losada and A. Balmain, (originally from Dr. J. W. Gray's Laboratory who in turn obtained them from the ATCC or from collections development in the laboratories of Drs. S. Ethier and A. Gazdar, to avoid errors occurring when obtained through “second-hand” sources) [Cancer Cell. (2006) 10:515-527]. Cell identities were verified by STR analyses [Oncogene (2014) 33:148-156].
(§2) Cells were plated in 24-well plates at 10,000-20,000 cells/well and cultured overnight in DMEM or RPMI+10% FBS. […] Cell proliferation was analyzed 48 and 72 hours later by an MTT-based assay as described in Cancer Res. (2005) 65:6801-6810.
(§3) Results are plotted as the mean±SD values of quadruplicates from two experiments.
(§4) To explore whether F(I) potentiated the action of drugs used in the therapy of TNBC, drug combination experiments were performed, and the results analyzed by the Chou and Talalay algorithm [Adv. Enzyme Regul.

MDA-MB-231 cells = test: as above
Experimental: as §1, §2, §3, §4

[1] = F(I) concentration in the tumors; format: in vivo; settings: 6 hours after the last treatment, F(I) 12 mg/kg intravenously, two tumors from two different mice
Experimental: (§5) Mice were manipulated at the animal facility of the CIC in Salamanca following legal guidelines. Female BALB/c nu/nu mice (7 weeks old) were obtained from Charles River Laboratories (Wilmington, Mass., USA). A total of 5×10^6 MDA-MB231 cells in 100 μL of DMEM and 100 μL of Matrigel (BD Biosciences) were injected subcutaneously into the right and left flank of each mouse. When tumours reached a mean volume of 100 mm^3, animals (n=32) were randomized into four groups (with equal average tumour volumes) (vehicle n=8, F(I) n=8, docetaxel n=8, and F(I)+docetaxel n=8). Mice were treated every four days intravenously with 12 mg/kg of F(I), and weekly, intraperitoneally with docetaxel 15 mg/kg. Tumour diameters were serially measured by callipers twice per week and tumour volumes were calculated by the following formula: volume=width^2×length/2. Mice were sacrificed on day 41. For biochemical and drug accumulation analyses, tumor samples were obtained after sacrifice of the animals by CO2 inhalation, and 6 hours after being treated with the different drugs, and immediately frozen in liquid nitrogen. The tumors were minced, washed with PBS, and homogenized (Dispomix, L&M Biotech, Holly Springs, N.C., USA) in ice-cold lysis buffer (1.5 mL/100 mg tumor). This homogenate was centrifuged at 10,000×g for 20 minutes at 4° C., and the supernatants were transferred to new tubes. […]

[2] = cited from earlier work
[3] = Body weight of treated mice; format: in vivo
Experimental: as §5

[4] = system: MDA-MB-231 xenografted tumors; test: Xenograft study, tumour volume; format: in vivo, mice; settings: F(I) 12 mg/kg intravenously every 3 days; FIG. 2
Experimental: as §5, with “Mice were treated every four days intravenously with 12 mg/kg of F(I), and weekly, intraperitoneally with docetaxel 15 mg/kg.” left out, “tumor).” for “tumor). This homogenate was centrifuged at 10,000×g for 20 minutes at 4° C., and the supernatants were transferred to new tubes.”
Comparisons of continuous variables between two groups for the mice tumor model experiments were performed using a two-sided Student's t-test. […] All data were analyzed using the statistical software SPSS 21.0 (SPSS Inc., Chicago, Ill.). […]

[5] = system: TNBC cell lines (HCC-70, HCC-3153, BT549, MDA-MB-231, HCC-1937, HBL-100, HCC-1187 and HS578T); test: MTT metabolism in panel of TNBC cell lines; format: cell-based
Experimental: as §1
Cells were plated in 24-well plates at 10,000-20,000 cells/well and cultured overnight in DMEM or RPMI+10% FBS. The next day medium was replaced with DMEM or RPMI containing different concentrations of F(I). Cell proliferation was analyzed 48 and 72 hours later by an MTT-based assay as described in Cancer Res. (2005) 65:6801-6810. […]
To analyze the potential antineoplastic effect of F(I) on TNBC, its action on a panel of eight representative TNBC cell lines (HCC-70, HCC-3153, BT549, MDA-MB-231 (MDAMB231), HCC-1937, HBL-100 (HBL100), HCC-1187 and HS578T) using MTT metabolism as readout of the effect of F(I) on cell number was evaluated. […]

SMILES: Cc1nc(Nc2ncc(C(=O)Nc3c(C)cccc3Cl)s2)cc(N2CCN(CCO)CC2)n1 [Dasatinib, dasatinib]
- MTT metabolism mean, Assay 1 (HBL-100 cells; Dasatinib 0.5 μM alone): 61.25%
- MTT metabolism mean, Assay 2 (HBL-100 cells; Dasatinib 0.5 μM alone): 65.30%
- MTT metabolism mean, Assay 1 (HBL-100 cells; Dasatinib 1.0 μM alone): 61.08%
- MTT metabolism mean, Assay 2 (HBL-100 cells; Dasatinib 1.0 μM alone): 64.94%
- MTT metabolism mean, Assay 1 (HBL-100 cells; Dasatinib 2.0 μM alone): 58.58%
- MTT metabolism mean, Assay 2 (HBL-100 cells; Dasatinib 2.0 μM alone): 58.48%
- MTT metabolism mean, Assay 1 (MDA-MB-231 cells; Dasatinib 0.5 μM alone): 65.29%
- MTT metabolism mean, Assay 2 (MDA-MB-231 cells; Dasatinib 0.5 μM alone): 62.89%
- MTT metabolism mean, Assay 1 (MDA-MB-231 cells; Dasatinib 1.0 μM alone): 59.58%
- MTT metabolism mean, Assay 2 (MDA-MB-231 cells; Dasatinib 1.0 μM alone): 63.07%
- MTT metabolism mean, Assay 1 (MDA-MB-231 cells; Dasatinib 2.0 μM alone): 56.05%
- MTT metabolism mean, Assay 2 (MDA-MB-231 cells; Dasatinib 2.0 μM alone): 55.89%

SMILES: CCC1=C[C@@H]2CN(C1)Cc1c([nH]c3ccccc13)[C@@](C(=O)OC)(c1cc3c(cc1OC)N(C)[C@H]1[C@@](O)(C(=O)OC)[C@H](OC(C)=O)[C@]4(CC)C=CCN5CC[C@]31[C@@H]54)C2 [Vinorelbine, vinorelbine]
- MTT metabolism mean, Assay 1 (MDA-MB-231 cells; Vinorelbine 1 nM alone): 94.11%
- MTT metabolism mean, Assay 2 (MDA-MB-231 cells; Vinorelbine 1 nM alone): 73.02%
- MTT metabolism mean, Assay 1 (MDA-MB-231 cells; Vinorelbine 3 nM alone): 84.61%
- MTT metabolism mean, Assay 2 (MDA-MB-231 cells; Vinorelbine 3 nM alone): 71.99%
- MTT metabolism mean, Assay 1 (MDA-MB-231 cells; Vinorelbine 5 nM alone): 84.42%
- MTT metabolism mean, Assay 2 (MDA-MB-231 cells; Vinorelbine 5 nM alone): 56.42%

SMILES: CC(=O)O[C@@]12CO[C@@H]1C[C@H](O)[C@@]1(C)C(=O)[C@H](O)C3=C(C)[C@@H](OC(=O)[C@H](O)[C@@H](NC(=O)OC(C)(C)C)c4ccccc4)C[C@@](O)([C@@H](OC(=O)c4ccccc4)[C@H]21)C3(C)C [Docetaxel, docetaxel]
- MTT metabolism mean, Assay 1 (HBL-100 cells; Docetaxel 2.5 nM alone): 96.93%
- MTT metabolism mean, Assay 2 (HBL-100 cells; Docetaxel 2.5 nM alone): 83.41%
- MTT metabolism mean, Assay 1 (HBL-100 cells; Docetaxel 5 nM alone): 85.11%
- MTT metabolism mean, Assay 2 (HBL-100 cells; Docetaxel 5 nM alone): 70.61%
- MTT metabolism mean, Assay 1 (HBL-100 cells; Docetaxel 10 nM alone): 55.03%
- MTT metabolism mean, Assay 2 (HBL-100 cells; Docetaxel 10 nM alone): 54.59%
- MTT metabolism mean, Assay 1 (MDA-MB-231 cells; Docetaxel 2.5 nM alone): 84.46%
- MTT metabolism mean, Assay 2 (MDA-MB-231 cells; Docetaxel 2.5 nM alone): 60.92%
- MTT metabolism mean, Assay 1 (MDA-MB-231 cells; Docetaxel 5 nM alone): 69.03%
- MTT metabolism mean, Assay 2 (MDA-MB-231 cells; Docetaxel 5 nM alone): 51.36%
- MTT metabolism mean, Assay 1 (MDA-MB-231 cells; Docetaxel 10 nM alone): 38.17%
- MTT metabolism mean, Assay 2 (MDA-MB-231 cells; Docetaxel 10 nM alone): 44.50%

SMILES: Nc1ccn([C@@H]2O[C@H](CO)[C@@H](O)C2(F)F)c(=O)n1 [Gemcitabine, gemcitabine]
- MTT metabolism mean, Assay 1 (HBL-100 cells; Gemcitabine 5 nM alone): 90.75%
- MTT metabolism mean, Assay 2 (HBL-100 cells; Gemcitabine 5 nM alone): 88.93%
- MTT metabolism mean, Assay 1 (HBL-100 cells; Gemcitabine 10 nM alone): 85.93%
- MTT metabolism mean, Assay 2 (HBL-100 cells; Gemcitabine 10 nM alone): 83.52%
- MTT metabolism mean, Assay 1 (HBL-100 cells; Gemcitabine 20 nM alone): 61.98%
- MTT metabolism mean, Assay 2 (HBL-100 cells; Gemcitabine 20 nM alone): 80.59%
- MTT metabolism mean, Assay 1 (MDA-MB-231 cells; Gemcitabine 5 nM alone): 77.29%
- MTT metabolism mean, Assay 2 (MDA-MB-231 cells; Gemcitabine 5 nM alone): 90.99%
- MTT metabolism mean, Assay 1 (MDA-MB-231 cells; Gemcitabine 10 nM alone): 67.76%
- MTT metabolism mean, Assay 2 (MDA-MB-231 cells; Gemcitabine 10 nM alone): 84.33%
- MTT metabolism mean, Assay 1 (MDA-MB-231 cells; Gemcitabine 20 nM alone): 48.14%
- MTT metabolism mean, Assay 2 (MDA-MB-231 cells; Gemcitabine 20 nM alone): 64.95%

SMILES: CO[C@@H]([C@@H]1Cc2cc3cc(O[C@H]4CC(O[C@H]5CC(O)[C@H](O)C(C)O5)[C@H](O)C(C)O4)c(C)c(O)c3c(O)c2C(=O)[C@H]1O[C@H]1CC(O[C@H]2CC(O[C@H]3CC(O)[C@H](O)C(C)O3)[C@@H](O)C(C)O2)[C@H](O)C(C)O1)[C@@H](O)C(C)=O (stereo partly drawn) [F(I), demycarosyl-3D-β-D-digitoxosyl-mithramycin SK]
- F(I) concentration in the tumors [1]: 2.2 µg/g
- concentration at 6 h ([1]; female, BALB/c nu/nu, mouse, tumor, iv, 12 mg/kg): 3800 ng/g
- Toxicity in vivo relative to mithramycin (times less toxic) [2]: 10 times
- Body weight ([3]; F(I) 12 mg/kg, FIG. 3): slight decrease initially
- Tolerability ([3]; alone or in combination, suggested by body weights, FIG. 6): well tolerated
- Effect on tumor growth [4]: inhibitory effect on tumor growth
- MTT metabolism mean, Assay 1 (HBL-100 cells; F(I) 10 nM alone): 85.52%
- MTT metabolism mean, Assay 2 (HBL-100 cells; F(I) 10 nM alone): 99.53%
- MTT metabolism mean, Assay 1 (HBL-100 cells; F(I) 50 nM alone): 66.35%
- MTT metabolism mean, Assay 2 (HBL-100 cells; F(I) 50 nM alone): 62.85%
- MTT metabolism mean, Assay 1 (MDA-MB-231 cells; F(I) 10 nM alone): 94.27%
- MTT metabolism mean, Assay 2 (MDA-MB-231 cells; F(I) 10 nM alone): 96.65%
- MTT metabolism mean, Assay 1 (MDA-MB-231 cells; F(I) 50 nM alone): 70.05%
- MTT metabolism mean, Assay 2 (MDA-MB-231 cells; F(I) 50 nM alone): 59.26%
- pIC50 ([5]; 72 hours of treatment, all cell lines (FIG. 1)): > 7.00
- Effect on MTT metabolism ([5]; all the TNBC cell lines studied, 48 or 72 hours, different doses): decreased MTT metabolism of all the TNBC cell lines studied in a dose-dependent and time-dependent manner
